Assay [1] has as its target T1, DPS (deoxypodophyllotoxin synthase) (Sinopodophyllum hexandrum, UniProt A0A0N9HQ36). Particulars: coproduct at Fe active site, with Fe and (±)-yatein; pH 7.5.
Assay [2] addresses T1, DPS (deoxypodophyllotoxin synthase). The following applies: co-substrate; Fe bound, bidentate, offline mode; pH 8.5.

The results in this text go back to article PMC8740726 (Proceedings of the National Academy of Sciences of the …, 2021).

T1 sequence (A0A0N9HQ36 whole entry): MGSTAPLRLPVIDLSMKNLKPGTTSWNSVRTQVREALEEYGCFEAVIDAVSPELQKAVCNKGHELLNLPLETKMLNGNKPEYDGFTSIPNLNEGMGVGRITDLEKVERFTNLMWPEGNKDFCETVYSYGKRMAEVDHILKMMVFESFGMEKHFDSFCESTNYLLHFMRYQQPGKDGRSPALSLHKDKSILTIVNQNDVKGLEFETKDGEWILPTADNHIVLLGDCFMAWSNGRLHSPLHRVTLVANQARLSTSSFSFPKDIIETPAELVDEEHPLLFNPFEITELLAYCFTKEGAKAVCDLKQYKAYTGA

Regarding `O=C(O)CCC(=O)O` [succinate], the “X-ray crystal structure, 2.05 A” value in assay [1] is “The substrate (−)-6a and the coproduct succinate are shown in stick representation”.
Consider `O=C(O)CCC(=O)C(=O)O` [2OG], for which, in assay [2], the “X-ray crystal structure, 2.09 A” value is given as “Overall structure of the DPS•Fe•2OG ternary complex (Protein Data Bank identification: 7E37)”.
